Laboratory results reported in the supplement of paper PMC10307832.

How the values were obtained:
Assay in all cases: relative viability (nuclei count vs DMSO), 5 days (fraction); higher = more cells survive
201T = system: 201T
Summary of the method: (§1)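 Nuclei were stained with Hoechst during a one-step fixation (final 0.05% Triton X-100, 1% formaldehyde, 1 ug/ml Hoechst) carried out 5 days after dosing, then counted on 4× images. The cells, lung cancer lines in 1536-well plates, had been dosed by pin tool the day after seeding with one drug alone or a fixed anchor-drug dose plus five library-drug doses (not always all listed) in √10 steps. Relative viability is the nuclei count in treated wells divided by that in vehicle wells, and each value is the median of duplicate plates.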

BEN = system: BEN
Summary of the method: as §1

CAL-12T = system: CAL-12T
Summary of the method: as §1

HCC-44 = system: HCC-44
Summary of the method: as §1

HCC-827 = system: HCC-827
Summary of the method: as §1

HOP-62 = system: HOP-62
Summary of the method: as §1

LCLC-103H = system: LCLC-103H
Summary of the method: as §1

LCLC-97TM1 = system: LCLC-97TM1
Summary of the method: as §1

LXF-289 = system: LXF-289
Summary of the method: as §1

NCI-H1355 = system: NCI-H1355
Summary of the method: as §1

NCI-H1395 = system: NCI-H1395
Summary of the method: as §1

NCI-H1437 = system: NCI-H1437
Summary of the method: as §1

NCI-H1650 = system: NCI-H1650
Summary of the method: as §1

NCI-H1793 = system: NCI-H1793
Summary of the method: as §1

NCI-H2023 = system: NCI-H2023
Summary of the method: as §1

NCI-H2087 = system: NCI-H2087
Summary of the method: as §1

NCI-H2228 = system: NCI-H2228
Summary of the method: as §1

NCI-H2405 = system: NCI-H2405
Summary of the method: as §1

NCI-H3122 = system: NCI-H3122
Summary of the method: as §1

NCI-H322M = system: NCI-H322M
Summary of the method: as §1

NCI-H647 = system: NCI-H647
Summary of the method: as §1

NCI-H727 = system: NCI-H727
Summary of the method: as §1

RERF-LC-KJ = system: RERF-LC-KJ
Summary of the method: as §1

SK-LU-1 = system: SK-LU-1
Summary of the method: as §1

`C[C@@H]1CN(CC(=O)Nc2ccc3c(c2)Cc2cccc(-c4cc(=O)cc(N5CCOCC5)o4)c2S3)C[C@H](C)O1` + CCNC(=O)c1noc(-c2cc(C(C)C)c(O)cc2O)c1-c1ccc(CN2CCOCC2)cc1 [Luminespib] (partner 0.01 µM) was tested. Which relative viability (201T; first compound 0.04 µM) did it give?
The relative viability was 1.06.

And the relative viability (201T; first compound 0.1265 µM)?
The relative viability was 1.05.

What about the relative viability (201T; first compound 0.4 µM) of the same molecule?
The relative viability was 1.04.

What about the relative viability (201T; first compound 4 µM) of the same molecule?
Its relative viability is 1.01.

What about the relative viability (BEN; first compound 0.04 µM) of the same molecule?
Its relative viability is 0.264.

And the relative viability (BEN; first compound 0.1265 µM)?
Its relative viability is 0.252.

And the relative viability (BEN; first compound 0.4 µM)?
The relative viability was 0.463.

What about the relative viability (BEN; first compound 4 µM) of the same molecule?
The relative viability was 0.322.

And the relative viability (CAL-12T; first compound 0.04 µM)?
The relative viability was 0.302.

And the relative viability (CAL-12T; first compound 0.1265 µM)?
The relative viability was 0.408.

What about the relative viability (CAL-12T; first compound 0.4 µM) of the same molecule?
The relative viability was 0.613.

What about the relative viability (CAL-12T; first compound 4 µM) of the same molecule?
The relative viability was 0.168.

And the relative viability (HCC-44; first compound 0.04 µM)?
Its relative viability is 0.9.

What about the relative viability (HCC-44; first compound 0.1265 µM) of the same molecule?
The relative viability was 1.04.

And the relative viability (HCC-44; first compound 0.4 µM)?
Its relative viability is 1.19.

And the relative viability (HCC-44; first compound 4 µM)?
Its relative viability is 0.949.

And the relative viability (HCC-827; first compound 0.04 µM)?
The relative viability was 0.547.

And the relative viability (HCC-827; first compound 0.1265 µM)?
Its relative viability is 0.469.

What about the relative viability (HCC-827; first compound 0.4 µM) of the same molecule?
The relative viability was 0.915.

And the relative viability (HCC-827; first compound 4 µM)?
The relative viability was 0.681.

And the relative viability (HOP-62; first compound 0.04 µM)?
The relative viability was 0.917.

And the relative viability (HOP-62; first compound 0.1265 µM)?
The relative viability was 0.898.

And the relative viability (HOP-62; first compound 0.4 µM)?
Its relative viability is 0.92.

And the relative viability (HOP-62; first compound 4 µM)?
The relative viability was 0.907.

What about the relative viability (LCLC-103H; first compound 0.04 µM) of the same molecule?
Its relative viability is 0.949.

What about the relative viability (LCLC-103H; first compound 0.1265 µM) of the same molecule?
Its relative viability is 0.971.

What about the relative viability (LCLC-103H; first compound 0.4 µM) of the same molecule?
The relative viability was 0.906.

And the relative viability (LCLC-103H; first compound 4 µM)?
The relative viability was 0.72.

What about the relative viability (LCLC-97TM1; first compound 0.04 µM) of the same molecule?
The relative viability was 0.657.

And the relative viability (LCLC-97TM1; first compound 0.1265 µM)?
Its relative viability is 0.828.

And the relative viability (LCLC-97TM1; first compound 0.4 µM)?
Its relative viability is 0.749.

What about the relative viability (LCLC-97TM1; first compound 4 µM) of the same molecule?
Its relative viability is 0.813.

And the relative viability (LXF-289; first compound 0.04 µM)?
The relative viability was 0.657.

What about the relative viability (LXF-289; first compound 0.1265 µM) of the same molecule?
Its relative viability is 0.645.

And the relative viability (LXF-289; first compound 0.4 µM)?
Its relative viability is 0.714.

What about the relative viability (LXF-289; first compound 4 µM) of the same molecule?
Its relative viability is 0.73.

And the relative viability (NCI-H1355; first compound 0.04 µM)?
Its relative viability is 0.678.

What about the relative viability (NCI-H1355; first compound 0.1265 µM) of the same molecule?
Its relative viability is 0.693.

What about the relative viability (NCI-H1355; first compound 0.4 µM) of the same molecule?
Its relative viability is 0.704.

What about the relative viability (NCI-H1355; first compound 4 µM) of the same molecule?
Its relative viability is 0.805.

And the relative viability (NCI-H1395; first compound 0.04 µM)?
Its relative viability is 0.695.

And the relative viability (NCI-H1395; first compound 0.1265 µM)?
Its relative viability is 0.627.

What about the relative viability (NCI-H1395; first compound 0.4 µM) of the same molecule?
Its relative viability is 0.69.

And the relative viability (NCI-H1395; first compound 4 µM)?
Its relative viability is 0.741.

What about the relative viability (NCI-H1437; first compound 0.04 µM) of the same molecule?
Its relative viability is 1.2.

What about the relative viability (NCI-H1437; first compound 0.1265 µM) of the same molecule?
The relative viability was 1.16.

What about the relative viability (NCI-H1437; first compound 0.4 µM) of the same molecule?
The relative viability was 1.22.

And the relative viability (NCI-H1437; first compound 4 µM)?
Its relative viability is 0.891.

And the relative viability (NCI-H1650; first compound 0.04 µM)?
The relative viability was 0.212.

And the relative viability (NCI-H1650; first compound 0.1265 µM)?
The relative viability was 0.23.

What about the relative viability (NCI-H1650; first compound 0.4 µM) of the same molecule?
Its relative viability is 0.18.

What about the relative viability (NCI-H1650; first compound 4 µM) of the same molecule?
The relative viability was 0.171.

And the relative viability (NCI-H1793; first compound 0.04 µM)?
Its relative viability is 0.141.

And the relative viability (NCI-H1793; first compound 0.1265 µM)?
Its relative viability is 0.177.

What about the relative viability (NCI-H1793; first compound 0.4 µM) of the same molecule?
The relative viability was 0.164.

What about the relative viability (NCI-H1793; first compound 4 µM) of the same molecule?
The relative viability was 0.135.

What about the relative viability (NCI-H2023; first compound 0.04 µM) of the same molecule?
Its relative viability is 0.691.

And the relative viability (NCI-H2023; first compound 0.1265 µM)?
The relative viability was 0.75.

What about the relative viability (NCI-H2023; first compound 0.4 µM) of the same molecule?
The relative viability was 0.543.

What about the relative viability (NCI-H2023; first compound 4 µM) of the same molecule?
Its relative viability is 0.37.

What about the relative viability (NCI-H2087; first compound 0.04 µM) of the same molecule?
The relative viability was 0.217.

What about the relative viability (NCI-H2087; first compound 0.1265 µM) of the same molecule?
The relative viability was 0.188.

And the relative viability (NCI-H2087; first compound 0.4 µM)?
Its relative viability is 0.207.

What about the relative viability (NCI-H2087; first compound 4 µM) of the same molecule?
The relative viability was 0.168.

And the relative viability (NCI-H2228; first compound 0.04 µM)?
Its relative viability is 0.15.

And the relative viability (NCI-H2228; first compound 0.1265 µM)?
Its relative viability is 0.128.

What about the relative viability (NCI-H2228; first compound 0.4 µM) of the same molecule?
Its relative viability is 0.171.

And the relative viability (NCI-H2228; first compound 4 µM)?
Its relative viability is 0.133.

And the relative viability (NCI-H2405; first compound 0.04 µM)?
Its relative viability is 0.648.

And the relative viability (NCI-H2405; first compound 0.1265 µM)?
Its relative viability is 0.744.

What about the relative viability (NCI-H2405; first compound 0.4 µM) of the same molecule?
The relative viability was 0.726.

And the relative viability (NCI-H2405; first compound 4 µM)?
The relative viability was 0.612.

What about the relative viability (NCI-H3122; first compound 0.04 µM) of the same molecule?
The relative viability was 0.0752.

And the relative viability (NCI-H3122; first compound 0.1265 µM)?
Its relative viability is 0.102.

And the relative viability (NCI-H3122; first compound 0.4 µM)?
The relative viability was 0.0706.

And the relative viability (NCI-H3122; first compound 4 µM)?
The relative viability was 0.0744.

And the relative viability (NCI-H322M; first compound 0.04 µM)?
The relative viability was 0.767.

And the relative viability (NCI-H322M; first compound 0.1265 µM)?
Its relative viability is 0.765.

What about the relative viability (NCI-H322M; first compound 0.4 µM) of the same molecule?
The relative viability was 0.839.

And the relative viability (NCI-H322M; first compound 4 µM)?
Its relative viability is 0.841.

And the relative viability (NCI-H647; first compound 0.04 µM)?
Its relative viability is 0.121.

And the relative viability (NCI-H647; first compound 0.1265 µM)?
Its relative viability is 0.153.

What about the relative viability (NCI-H647; first compound 0.4 µM) of the same molecule?
The relative viability was 0.152.

And the relative viability (NCI-H647; first compound 4 µM)?
The relative viability was 0.163.

What about the relative viability (NCI-H727; first compound 0.04 µM) of the same molecule?
Its relative viability is 0.362.

What about the relative viability (NCI-H727; first compound 0.1265 µM) of the same molecule?
Its relative viability is 0.603.

What about the relative viability (NCI-H727; first compound 0.4 µM) of the same molecule?
Its relative viability is 0.37.

What about the relative viability (NCI-H727; first compound 4 µM) of the same molecule?
The relative viability was 0.388.

And the relative viability (RERF-LC-KJ; first compound 0.04 µM)?
Its relative viability is 1.18.

What about the relative viability (RERF-LC-KJ; first compound 0.1265 µM) of the same molecule?
The relative viability was 1.18.

And the relative viability (RERF-LC-KJ; first compound 0.4 µM)?
Its relative viability is 1.19.

What about the relative viability (RERF-LC-KJ; first compound 4 µM) of the same molecule?
The relative viability was 0.709.

And the relative viability (SK-LU-1; first compound 0.04 µM)?
The relative viability was 0.222.

What about the relative viability (SK-LU-1; first compound 0.1265 µM) of the same molecule?
Its relative viability is 0.203.

And the relative viability (SK-LU-1; first compound 0.4 µM)?
Its relative viability is 0.23.

What about the relative viability (SK-LU-1; first compound 4 µM) of the same molecule?
The relative viability was 0.167.
